Measurements from US20050244897A1, “Endothelial cells as diagnostic instrument in cardiovascular diseases” (priority 2002, published 2005).

Key:
LDL-cholesterol = experiment: Serum lipid fractions (LDL-cholesterol) in patients with stable angina before and after treatment; assay type: in vivo, human
Experimental: (§1) In addition, 8 patients with stable angina were prospectively treated with atorvastatin (20 mg/day, four weeks).
In all patients serum was also collected at the time of examination for a determination of the concentrations of CRP and hsCRP (turbidimetric assay, Boehringer Mannheim and Ultrasensitive N Latex CRP Monotest, Behring, respectively) as well as serum lipid-fractions (Boehringer Mannheim).
Thus, it was prospectively examined whether a short-term treatment with atorvastatin (20 mg/day, four weeks) reduces the EC-apoptosis in patients with stable CAD.

[1] = test system: circulating apoptotic ECs; experiment: Flow cytometry (FACS) of circulating apoptotic ECs in peripheral blood of patients with stable angina treated prospectively; assay type: in vivo, human
Experimental: as §1
The lysis of erythrocytes in 10 ml peripheral venous heparin blood was performed with the aid of a commercially available solution for lysis (Becton Dickinson, BD). The circulating ECs were then examined by means of 4-channel-FACS (Fluorescence Activated Cell Sorting)-analysis, using a suitably modified protocol according to the method of Mancuso et al. and Monestiroli et al. (Mancuso P., Burlini A., Pruneri G., Goldhirsch A., Martinelli G., Bertolini F. Blood. 2001; 97: 3658-3661; Monestiroli S., Mancuso P., Burlini A., Pruneri G., Dell'Agnola C., Gobbi A., Martinelli G., Bertolini F. Cancer Res. 2001; 61: 4341-4344) (FIG. 1). First, in the representation of the forward/sideward-scatter a regional window was defined, in order to exclude platelets and debris from the further analyses. Amongst the remaining cells, the number of the CD45^+-signals that were identified with a direct perCP-conjugated monoclonal antibody against human CD45 (BD) was quantified, in order to normalise each measured cellular population in view of the total number of the leukocytes in relation to the number of WBCs. In order to specifically detect mature ECs, only CD45^−-cells were analysed further by double staining with antibodies against the EC-specific epitope CD146 (MeI-CAM, MUC18, S-Endo-1; Shih I. M. J Pathol. 1999; 189: 4-11) (monoclonal mouse-antibody, directly FITC-conjugated; Chemicon) and against von Willebrandt-factor (vWF) (rabbit, Oncogene), followed by a PE-conjugated anti-rabbit secondary antibody. Alternatively, human KDR was detected with an anti-KDR-antibody of the mouse (Sigma), followed by a PE-conjugated anti-mouse secondary antibody in addition to vWF. CD45^−/CD146^+/vWF^+ or CD45^−/KDR^+/vWF^+-cells were defined as mature ECs. […]

SMILES: CC(C)c1c(C(=O)Nc2ccccc2)c(-c2ccccc2)c(-c2ccc(F)cc2)n1CC[C@@H](O)C[C@@H](O)CC(=O)O [atorvastatin]
- LDL-cholesterol (mg/dl) post (LDL-cholesterol; n=8 patients with stable angina, after 20 mg/day for four weeks, pre value 155 ± 16, mean ± SEM): 86 ± 13 mg/dL
- concentration of LDL-cholesterol (LDL-cholesterol; patients with stable CAD, 20 mg/day, four weeks, p<0.02): significantly reduced
- EC-apoptosis ([1]; patients with CAD, four week treatment period): profoundly reduces
- number of circulating apoptotic ECs ([1]; patients with stable CAD (SA), n=8, 20 mg/day, four weeks, FIG. 3A): significantly reduced
- proportion of apoptotic ECs of the total number of circulating ECs ([1]; patients with stable CAD (SA), n=8, 20 mg/day, four weeks, FIG. 3B): significantly reduced
